Reference: patent publication US20240158446A1, “CYCLIC COMPOUND HAVING SELECTIVE INHIBITORY ACTION ON KRAS OVER HRAS AND NRAS” (CHUGAI SEIYAKU KABUSHIKI KAISHA, priority 2021, published 2024)
Read-outs that look alike come from different tables or passages of the source. *1 amine or outer side, *2 acyl side, *3 side chain or, on linkers, in order; H or OH if unused. Where a SMILES comes first, the peptide text is derived from it. Bridges are numbered along the chain shown (N, C = ends). [ ]: non-standard residue; d: D form. The star is where a group is joined. hPhe(3-Cl-4-CF3) = N[C@@H](CCc1ccc(C(F)(F)F)c(Cl)c1)C(=O)O; X27 = O=C([C@H](Cc1ccc(C(F)(F)F)cc1)N(CC1CC1)[*:1])[*:2]; NMeGly(cPent) = CN[C@H](C(=O)O)C1CCCC1; NMeD = CN[C@@H](CC(=O)O)C(=O)O; NMeL = CN[C@@H](CC(C)C)C(=O)O; Morpholide = C1CN(*)CCO1; Ac5c = NC1(C(=O)O)CCCC1; Sar = CNCC(=O)O

Legend:
[1] = biological target: GDP-bound KRAS wild-type protein (Homo sapiens, UniProt P01116); test: Binding to KRAS by surface plasmon resonance (SPR), Single Cycle Kinetics; conditions: GDP-bound KRAS wild-type protein, read-out: KRAS KD
Sequence of GDP-bound KRAS wild-type protein (P01116 whole entry): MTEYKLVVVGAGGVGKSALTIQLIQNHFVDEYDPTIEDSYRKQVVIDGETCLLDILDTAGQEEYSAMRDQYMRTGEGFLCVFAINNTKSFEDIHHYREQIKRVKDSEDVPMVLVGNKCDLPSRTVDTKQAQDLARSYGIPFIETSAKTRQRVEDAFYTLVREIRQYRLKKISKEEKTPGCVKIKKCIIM

[2] = biological target: GDP-bound NRAS wild-type protein (Homo sapiens, UniProt P01111); test: Binding to NRAS by surface plasmon resonance (SPR), Single Cycle Kinetics; conditions: SPR
Sequence of GDP-bound NRAS wild-type protein (P01111 whole entry): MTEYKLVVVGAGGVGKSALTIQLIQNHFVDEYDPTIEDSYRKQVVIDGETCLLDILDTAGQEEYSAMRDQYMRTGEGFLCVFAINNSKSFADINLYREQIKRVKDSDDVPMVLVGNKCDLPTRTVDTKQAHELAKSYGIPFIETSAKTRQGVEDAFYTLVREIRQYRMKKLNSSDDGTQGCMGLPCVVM

[3] = biological target: GDP-bound HRAS wild-type protein (Homo sapiens, UniProt P01112); test: Binding to HRAS by surface plasmon resonance (SPR), Single Cycle Kinetics; conditions: SPR
Sequence of GDP-bound HRAS wild-type protein (P01112 whole entry): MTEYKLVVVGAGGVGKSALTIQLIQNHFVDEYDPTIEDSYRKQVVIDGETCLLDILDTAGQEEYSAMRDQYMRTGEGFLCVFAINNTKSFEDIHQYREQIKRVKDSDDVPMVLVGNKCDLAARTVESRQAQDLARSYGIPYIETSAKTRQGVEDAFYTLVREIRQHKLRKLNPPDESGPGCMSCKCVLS

[4] = GDP-bound NRAS wild-type protein vs GDP-bound KRAS wild-type protein
[5] = GDP-bound HRAS wild-type protein vs GDP-bound KRAS wild-type protein
[6] = SPR Single Cycle Kinetics, 1:1 binding model
[7] = SPR, Single Cycle Kinetics, 1:1 binding model
[8] = GDP-bound NRAS wild-type protein vs GDP-bound KRAS wild-type protein, KD ratio class
[9] = GDP-bound HRAS wild-type protein vs GDP-bound KRAS wild-type protein, KD ratio class

Row | Structure (SMILES) | Kd ([1]; SPR, Single Cycle Kinetics) [nM] | NRAS/KRAS (ratio of KD value for NRAS to KD value for KRAS) [2, 4] | HRAS/KRAS (ratio of KD value for HRAS to KD value for KRAS) [3, 5] | other results
1 | CCO[C@@H]1C[C@H]2C(=O)NC3(CC(C)(C)C3)C(=O)N(C)[C@@H](C3CCCC3)C(=O)N(C)[C@H](C(=O)N(C)C)CC(=O)N(C)[C@@H](CC(C)C)C(=O)N[C@@H]([C@@H](C)CC)C(=O)N(C)CC(=O)N(C)[C@H]3C/C=C\CCN(C3=O)[C@@H](Cc3ccc(C(F)(F)F)cc3)C(=O)N(C)CC(=O)N[C@@H](CCc3cc(F)c(C(F)(F)F)c(F)c3)C(=O)N2C1 [PP1650, (2S,8S,12R,14S,20S,23S,27S,30S,36S,38Z)-20-cyclopentyl-8-[2-[3,5-difluoro-4-(trifluoromethyl)phenyl]ethyl]-12-ethoxy-27-isobutyl-N,N,3′,3′,4,19,22,26,32,35-decamethyl-30-[(1S)-1-methylpropyl]-3,6,9,15,18,21,25,28,31,34,42-undecaoxo-2-[[4-(trifluoromethyl)phenyl]methyl]spiro[1,4,7,10,16,19,22,26,29,32,35-undecazatricyclo[34.5.1.0^10,14]dotetracont-38-ene-17,1′-cyclobutane]-23-carboxamide] | 0.057 | – | – | NRAS/KRAS (KD ratio) ([2]; ratio of KD for GDP-bound NRAS wild-type protein to KD for KRAS): A (a compound having 10 or more and less than 20 is denoted as A); HRAS/KRAS (KD ratio) ([3]; ratio of KD for GDP-bound HRAS wild-type protein to KD for KRAS): A (a compound having 10 or more and less than 20 is denoted as A)
2 | C#CC[C@H]1C(=O)N[C@@H]([C@@H](C)CC)C(=O)N(C)CC(=O)N(C)[C@H]2C/C=C\CCN(C2=O)[C@@H](Cc2ccc(C(F)(F)F)cc2)C(=O)N(C)CC(=O)N[C@@H](CCc2ccc(C(F)(F)F)c(OC)c2)C(=O)N2C[C@H](OCC)C[C@H]2C(=O)NC2(CC(C)(C)C2)C(=O)N(C)[C@@H](C2CCCC2)C(=O)N(C)[C@H](C(=O)N(C)CCC)CC(=O)N1C [PP2053] | 0.13 | A (a compound having 10 or more and less than 20 is denoted as A) | A (a compound having 10 or more and less than 20 is denoted as A) | –
3 | CCO[C@@H]1C[C@H]2C(=O)NC3(CCC3)C(=O)N(C)[C@@H](C3CCCC3)C(=O)N(C)[C@H](C(=O)N(C)C)CC(=O)N(C)[C@@H](CC3CC3)C(=O)N[C@@H]([C@@H](C)CC)C(=O)N(C)CC(=O)N(C)[C@H]3CCCCN(C3=O)[C@@H](Cc3ccc(C(F)(F)F)cc3)C(=O)N(C)CC(=O)N[C@@H](CCc3cc(F)c(C(F)(F)F)c(F)c3)C(=O)N2C1 [PP0697] | – | – | – | Kd [1, 6]: 0.021 nM; NRAS/KRAS (ratio of KD value with respect to NRAS to KD value with respect to KRAS) [2, 4]: C (A compound having a KD ratio of 0.1 or more and less than 3 is denoted as C); HRAS/KRAS (ratio of KD value with respect to HRAS to KD value with respect to KRAS) [3, 5]: C (A compound having a KD ratio of 0.1 or more and less than 3 is denoted as C)
4 | CCO[C@@H]1C[C@H]2C(=O)NC3(CCC3)C(=O)N(C)[C@@H](C3CCCC3)C(=O)N(C)[C@H](C(=O)N(C)C)CC(=O)N(C)[C@@H](Cc3cccs3)C(=O)N[C@@H]([C@@H](C)CC)C(=O)N(C)CC(=O)N(C)[C@H]3C/C=C\CCN(C3=O)[C@@H](Cc3ccc(C(F)(F)F)cc3)C(=O)N(C)CC(=O)N[C@@H](CCc3cc(F)c(C(F)(F)F)c(F)c3)C(=O)N2C1 [PP1123, (2S,8S,12R,14S,20S,23S,27S,30S,36S,38Z)-20-cyclopentyl-8-[2-[3,5-difluoro-4-(trifluoromethyl)phenyl]ethyl]-12-ethoxy-N,N,4,19,22,26,32,35-octamethyl-30-[(1S)-1-methylpropyl]-3,6,9,15,18,21,25,28,31,34,42-undecaoxo-27-(2-thienylmethyl)-2-[[4-(trifluoromethyl)phenyl]methyl]spiro[1,4,7,10,16,19,22,26,29,32,35-undecazatricyclo[34.5.1.0^10,14]dotetracont-38-ene-17,1′-cyclobutane]-23-carboxamide] | 0.072 | A (a compound having 10 or more and less than 20 is denoted as A) | B (a compound having 3 or more and less than 10 is denoted as B) | –
5 | CCCN(C)C(=O)[C@@H]1CC(=O)N(C)[C@@H](CC2CC2)C(=O)N[C@@H]([C@@H](C)CC)C(=O)N(C)CC(=O)N(C)[C@H]2C/C=C\CCN(C2=O)[C@@H](Cc2ccc(C(F)(F)F)cc2)C(=O)N(C)CC(=O)N[C@@H](CCc2cc(F)c(C(F)(F)F)c(F)c2)C(=O)N2C[C@H](OCC)C[C@H]2C(=O)NC2(CCC2)C(=O)N(C)[C@@H](C2CCCC2)C(=O)N1C [PP1388] | – | – | – | Kd [1, 7]: 0.076 nM; NRAS/KRAS (ratio of KD value for NRAS to KD value for KRAS) [2, 8]: A (a compound having 10 or more and less than 20 is denoted as A); HRAS/KRAS (ratio of KD value for HRAS to KD value for KRAS) [3, 9]: B (a compound having 3 or more and less than 10 is denoted as B)
6 | CCO[C@@H]1C[C@H]2C(=O)N(C)C3(CC(C)(C)C3)C(=O)N(C)[C@@H](C3CCCC3)C(=O)N(C)[C@H](C(=O)N(C)C)CC(=O)N(C)[C@H]3CCCC/C=C/c4ccc(cc4)C[C@@H](C(=O)N(C)CC(=O)N[C@@H](CCc4ccc(Cl)c(Cl)c4)C(=O)N2C1)N1CC/C=C\C[C@@H](C1=O)N(C)C(=O)CN(C)C(=O)[C@H]([C@@H](C)CC)NC3=O [PP3062] | 0.066 | A (a compound having 10 or more and less than 20 is denoted as A) | A (a compound having 10 or more and less than 20 is denoted as A) | –
7 | CCC[C@H]1C(=O)N[C@@H](C(CC)CC)C(=O)N(C)CC(=O)N(C)[C@H]2C/C=C\CCN(C2=O)[C@@H](Cc2ccc(C)cc2)C(=O)N(C)CC(=O)N[C@@H](CCc2ccc(C(F)(F)F)c(Cl)c2)C(=O)N2C[C@H](OCC)C[C@H]2C(=O)NC2(CC(C)(C)C2)C(=O)N(C)[C@@H](CC(C)(C)C)C(=O)N(C)[C@H](C(=O)N(C)C)CC(=O)N1C [PP2207] | 0.79 | A (a compound having 10 or more and less than 20 is denoted as A) | A (a compound having 10 or more and less than 20 is denoted as A) | –
8 | CCCN(C)C(=O)[C@@H]1CC(=O)N(C)[C@@H](CC(C)C)C(=O)N[C@@H]([C@@H](C)CC)C(=O)N(C)CC(=O)N(C)[C@H]2C/C=C\CCN(C2=O)[C@@H](Cc2ccc(C(F)(F)F)cc2)C(=O)N(C)CC(=O)N[C@@H](CCc2cc(F)c(C(F)(F)F)c(F)c2)C(=O)N2C[C@H](OCC)C[C@H]2C(=O)NC2(CCC2)C(=O)N(C)[C@@H](C2CCCC2)C(=O)N1C [PP1387, (2S,8S,12R,14S,20S,23S,27S,30S,36S,38Z)-20-cyclopentyl-8-[2-[3,5-difluoro-4-(trifluoromethyl)phenyl]ethyl]-12-ethoxy-27-isobutyl-N,4,19,22,26,32,35-heptamethyl-30-[(1S)-1-methylpropyl]-3,6,9,15,18,21,25,28,31,34,42-undecaoxo-N-propyl-2-[[4-(trifluoromethyl)phenyl]methyl]spiro[1,4,7,10,16,19,22,26,29,32,35-undecazatricyclo[34.5.1.0^10,14]dotetracont-38-ene-17,1′-cyclobutane]-23-carboxamide] | – | – | – | Kd [1, 7]: 0.098 nM; NRAS/KRAS (ratio of KD value for NRAS to KD value for KRAS) [2, 8]: A (a compound having 10 or more and less than 20 is denoted as A); HRAS/KRAS (ratio of KD value for HRAS to KD value for KRAS) [3, 9]: B (a compound having 3 or more and less than 10 is denoted as B)
9 | CCO[C@@H]1C[C@H]2C(=O)NC3(CCC3)C(=O)N(C)[C@@H](C3CCCC3)C(=O)N(C)[C@H](C(=O)N3CCOCC3)CC(=O)N(C)[C@@H](CC(F)F)C(=O)N[C@@H]([C@@H](C)CC)C(=O)N(C)CC(=O)N(C)[C@H]3CCCCCN(C3=O)[C@@H](Cc3ccc(C(F)(F)F)cc3)C(=O)N(C)CC(=O)N[C@@H](CCc3cc(F)c(C(F)(F)F)c(F)c3)C(=O)N2C1 [PP0854] | 0.38 | B (a compound having 3 or more and less than 10 is denoted as B) | B (a compound having 3 or more and less than 10 is denoted as B) | –
10 | CCO[C@@H]1C[C@H]2C(=O)NC3(CC(C)(C)C3)C(=O)N(C)[C@@H](C3CCCC3)C(=O)N(C)[C@H](C(=O)N(C)CC)CC(=O)N(C)[C@H]3CCCCCc4ccc(cc4)C[C@@H](C(=O)N(C)CC(=O)N[C@@H](CCc4ccc(C(F)(F)F)c(OC)c4)C(=O)N2C1)N1CC/C=C\C[C@@H](C1=O)N(C)C(=O)CN(C)C(=O)[C@H]([C@@H](C)CC)NC3=O [PP2259] | 0.12 | A (a compound having 10 or more and less than 20 is denoted as A) | B (a compound having 3 or more and less than 10 is denoted as B) | –
11 | CC[C@H](C)[C@@H]1NC(=O)[C@H](CC(C)C)N(C)C(=O)C[C@@H](C(=O)N2CCOCC2)N(C)C(=O)[C@H](C2CCCC2)N(C)C(=O)C2(CCCC2)NC(=O)[C@@H]2CCCN2C(=O)[C@H](CCc2ccc(C(F)(F)F)c(Cl)c2)NC(=O)CN(C)C(=O)[C@H](Cc2ccc(C(F)(F)F)cc2)N(CC2CC2)C(=O)CN(C)C(=O)CN(C)C1=O [PP0122] ([NMeL]I[Sar][Sar][X27][Sar][hPhe(3-Cl-4-CF3)]P[Ac5c][NMeGly(cPent)][NMeD]-Morpholide; lactam N-11) | – | C (A compound having a KD ratio of 0.1 or more and less than 3 is denoted as C) | C (A compound having a KD ratio of 0.1 or more and less than 3 is denoted as C) | Kd [1, 6]: 0.32 nM
